Measurements as given in US10266482B2, “Long-term memory inducing agent” (NATIONAL UNIVERSITY CORPORATION TOKYO MEDICAL AND DENTAL …, priority 2017, dated 2019).

How the values were obtained:
young crickets [1] = assay: Olfactory associative learning test in young crickets (single-time training, memory a day after); assay type: in vivo, Gryllus bimaculatus
Method: Male crickets about one week old (young) or three week old (aged) following molting into adult forms were used. Each of the crickets was placed into a 100 ml beaker three days before the experiment, and deprived of water for 2-3 days to enhance the desire of taking water. As the feed, about 10 pieces of insect feed were placed into the beaker.
A 1-ml syringe was used for smell and reward associative conditioning upon learning/training. The syringe contained water as the reward while a piece of paper (3 mm×3 mm) perfumed with peppermint essence was pierced into the needle to about 1 cm from the tip thereof. In this learning/training, the filter paper on the needle was brought near the antennae of the cricket to allow it to smell for 3 seconds and then a drop of water was put out from the tip of the needle and applied to the mouth of the cricket. When the associative conditioning was conducted for four times, the conditionings were conducted at intervals of 5 minutes.
Smell preference was examined by placing each cricket into a test arena. The arena consisted of a “standby chamber” and a “test chamber”. The floor of the “test chamber” had two holes each with a diameter of 4 cm which were communicated with two smell sources. The smell source was a plastic pot containing filter paper perfumed with essence of a smell (peppermint or vanilla) and covered with a gauze lid. In the preference test, each cricket was placed into the test chamber and allowed to walk freely for 4 minutes to search for the two smell sources. Two minutes after the start of the test, a rotary board having the smell sources was rotated to reverse the positions of the vanilla and the peppermint smells. During the test, the time the cricket spent placing its mouth to the gauze of the smell source was measured as a visiting time to the smell source, and the ratio of the visiting times of the two types of smells (PI value: preference index) was calculated according to the following formula to assess the relative preference to the mint smell. PI value=Tp/(Tp+Tv)×100 • Tp: Searching time for smell associated with the reward (peppermint) • Tv: Searching time for smell not associated with the reward (vanilla)
If the preferences for the two smells are equivalent, PI will be 50. Since crickets inherently prefer vanilla smell over peppermint smell, an average PI value prior to the learning/training is usually 25-35, The preference test was conducted before and after the learning/training to examine whether preference for the smell changes due to the learning/training.
As drugs, melatonin, N(1)-acetyl-N(2)-formyl-5-methoxykynuramine (AFMK), N(1)-acetyl-5-methoxykynuramine (AMK), 6-Hydroxymelatonin (6-HM), L-kynurenine, kynuramine, 8-Bromoguanoine 3′,5′-cyclic monophosphate sodium salt (8 br-cGMP) and cycloheximide (CHX) were used. Melatonin, 6-HM, kynurenine, kynuramine and 8br-cGMP were purchased from SIGMA Aldrich, AFMK was purchased from Cayman Chemical, AMK was purchased from Toronto Research Chemicals and CHX was purchased from Wako Pure Chemical Industries. The drugs other than 8br-cGMP and CHX were first dissolved in ethanol and then diluted with physiological saline for crickets to the respective concentrations. In the administration experiment, 3 μl was administered using a 10-μl syringe to the brain via an aperture opened through a simple eye of the head.
PI values were tested before the training and a day after the training in the same group by a Wilcoxon's-test.

aged crickets = assay: Olfactory associative learning test in aged crickets (age-related memory disorder, training four times); assay type: in vivo, Gryllus bimaculatus; details: 5 μM, 3 μl
Method: Male crickets about one week old (young) or three week old (aged) following molting into adult forms were used. Each of the crickets was placed into a 100 ml beaker three days before the experiment, and deprived of water for 2-3 days to enhance the desire of taking water. As the feed, about 10 pieces of insect feed were placed into the beaker. A 1-ml syringe was used for smell and reward associative conditioning upon learning/training. The syringe contained water as the reward while a piece of paper (3 mm×3 mm) perfumed with peppermint essence was pierced into the needle to about 1 cm from the tip thereof. In this learning/training, the filter paper on the needle was brought near the antennae of the cricket to allow it to smell for 3 seconds and then a drop of water was put out from the tip of the needle and applied to the mouth of the cricket. When the associative conditioning was conducted for four times, the conditionings were conducted at intervals of 5 minutes. Smell preference was examined by placing each cricket into a test arena. The arena consisted of a “standby chamber” and a “test chamber”. […] The smell source was a plastic pot containing filter paper perfumed with essence of a smell (peppermint or vanilla) and covered with a gauze lid. In the preference test, each cricket was placed into the test chamber and allowed to walk freely for 4 minutes to search for the two smell sources. Two minutes after the start of the test, a rotary board having the smell sources was rotated to reverse the positions of the vanilla and the peppermint smells. During the test, the time the cricket spent placing its mouth to the gauze of the smell source was measured as a visiting time to the smell source, and the ratio of the visiting times of the two types of smells (PI value: preference index) was calculated according to the following formula to assess the relative preference to the mint smell. PI value=Tp/(Tp+Tv)×100 • Tp: Searching time for smell associated with the reward (peppermint) • Tv: Searching time for smell not associated with the reward (vanilla) If the preferences for the two smells are equivalent, PI will be 50. Since crickets inherently prefer vanilla smell over peppermint smell, an average PI value prior to the learning/training is usually 25-35, The preference test was conducted before and after the learning/training to examine whether preference for the smell changes due to the learning/training. […] Melatonin, 6-HM, kynurenine, kynuramine and 8br-cGMP were purchased from SIGMA Aldrich, AFMK was purchased from Cayman Chemical, AMK was purchased from Toronto Research Chemicals and CHX was purchased from Wako Pure Chemical Industries. The drugs other than 8br-cGMP and CHX were first dissolved in ethanol and then diluted with physiological saline for crickets to the respective concentrations. In the administration experiment, 3 μl was administered using a 10-μl syringe to the brain via an aperture opened through a simple eye of the head. PI values were tested before the training and a day after the training in the same group by a Wilcoxon's-test.

young mice = assay: Object recognition test for young mice (melatonin and melatonin metabolites); assay type: in vivo, ICR mice; details: i.p. 60 minutes after one one-minute acquisition trial, test trial 24 hours later
Method: Two-month-old male ICR mice (young mice) were used. The rearing room was kept at 22° C. at cycles of 12 hours of light period/12 hours of dark period, and feed and drinking water were given freely. All of the experiments were conducted during the latter 6 hours of the light period.
Melatonin (MEL), N(1)-acetyl-N(2)-formyl-5-methoxykynuramine (AFMK), and N(1)-acetyl-5-methoxykynuramine (AMK) were used as drugs. Melatonin was purchased from SIGMA Aldrich, AFMK was purchased from Cayman Chemical, and AMK was purchased from Toronto Research Chemicals. AFMK and AMK were diluted with physiological saline and intraperitoneally administered at a dosage of 0.01 mg/kg bw, 0.1 mg/kg bw or 1.0 mg/kg bw. MEL was diluted with physiological saline containing 1 vol % ethanol, and intraperitoneally administered at a dosage of 1.0 mg/kg bw or 5.0 mg/kg bw. As controls, physiological saline or physiological saline containing 1 vol % ethanol was intraperitoneally administered.
Test was conducted in the same manner as “5.3 Object recognition test” in Example 5.
Processing was conducted in the same manner as “5.4 Statistical processing” in Example 5.

young crickets [2] = assay: Olfactory associative learning test in young crickets (single-time training, memory a day after); assay type: in vivo, Gryllus bimaculatus; details: drinking 10 μl of aqueous solution (5 μM) 5 minutes after single-time training

Which “long-term memory formation a day after the training” value (young crickets [1]; 0.2 μM, 3 μl to the brain, 20 minutes after single-time training) does the source give for `COc1ccc2[nH]cc(CCNC(C)=O)c2c1` [melatonin, reference compound] here?
The value was “not”.

And the “long-term memory formation a day after the training” value (young crickets [1]; 1 μM, 3 μl to the brain, 20 minutes after single-time training)?
The value was “not”.

What about the “PI value for mint a day after the training versus PI value before the training” value (young crickets [1]; 5 μM to the brain 20 minutes before single-time training) of the same compound?
Its value is “significantly higher”.

And the “long-term memory formation a day after the training” value (young crickets [1]; 5 μM, 3 μl to the brain, 20 minutes after single-time training)?
Its value is “long-term memories were formed”.

And the “long-term memory formation a day after the training” value (young crickets [1]; 5 μM, 3 μl, administered between 20 minutes before and 20 minutes after single-time training)?
The value was “long-term memory was formed”.

And the “long-term memory formation a day after the training” value (young crickets [1]; 25 μM, 3 μl to the brain, 20 minutes after single-time training)?
The value was “formed”.

What about the “administration concentration sufficient to form long-term memory” value (young crickets [1]; 3 μl to the brain 20 minutes after single-time training) of the same compound?
The value was 5 µM.

And the “amount in 1 g of the food per kg of body weight” value (young crickets [1]; based on the result from ingesting 5 μM for 10 μl)?
Its value is at least 11.6 µg.

What about the “PI value for mint a day after the training versus PI value before the training” value (young crickets [1]; melatonin 5 μM simultaneously with cycloheximide (10 mM), to the brain 20 minutes before single-time training) of the same compound?
The value was “no significant difference”.

What about the “improvement in an age-related memory disorder” value (aged crickets; 20 minutes after training for four times) of the same compound?
Its value is “improvement in an age-related memory disorder was observed”.

And the “long-term memory formation a day after the training (improvement of age-related memory disorder)” value (aged crickets; 20 minutes before training for four times)?
Its value is “a long-term memory was formed”.

And the “concentration at which the effect of inducing long-term memories was found” value (young mice)?
Its value is 5.0 mg/kg bw.

And the “long-term memory formation a day after the training by oral administration” value (young crickets [2])?
Its value is “long-term memory was formed”.
